Measured values taken from ChEMBL document CHEMBL3352621, “Pentapeptide boronic acid inhibitors of Mycobacterium tuberculosis MycP1 protease” (Bioorg Med Chem Lett, 2014).
Active and inactive are the calls of the source. Peptide text beside a SMILES is read from it. * marks the point of attachment. boroAla = C[C@H](N*)B(O)O

Columns and labels:
[1] = test system: Mycobacterium tuberculosis
[2] = test system: Mycobacterium thermoresistibile
[3] = test system: Mycolicibacterium smegmatis

Measured: inhibition

CC(C)[C@H](NC(=O)[C@H](C)N)C(=O)N[C@@H](CCCCN)C(=O)N[C@@H](C)C(=O)N[C@@H](C)B(O)O (H-AVKA-boroAla)
inactive: all assays above
